Test results reported in ChEMBL document CHEMBL1133437, “Parallel synthesis of a library of 1,4-naphthoquinones and automated screening of potential inhibitors of trypanothione reductase from Trypanosoma cruzi” (Bioorg Med Chem Lett, 2000).

Assays:
[1] = target: Trypanothione reductase (Trypanosoma cruzi, UniProt P28593); assay: Concentration required for inhibition of Trypanothione reductase (TcTR) from Trypanosoma cruzi in the presence of 50 uM TS2 as substrate
[2] = target: Trypanothione reductase (Trypanosoma cruzi) (UniProt P28593); assay: Percentage inhibition of Trypanothione reductase at 25 uM in the presence of 200 uM DTNBA as substrate
Trypanothione reductase (Trypanosoma cruzi), sequence (P28593 whole entry, looked up): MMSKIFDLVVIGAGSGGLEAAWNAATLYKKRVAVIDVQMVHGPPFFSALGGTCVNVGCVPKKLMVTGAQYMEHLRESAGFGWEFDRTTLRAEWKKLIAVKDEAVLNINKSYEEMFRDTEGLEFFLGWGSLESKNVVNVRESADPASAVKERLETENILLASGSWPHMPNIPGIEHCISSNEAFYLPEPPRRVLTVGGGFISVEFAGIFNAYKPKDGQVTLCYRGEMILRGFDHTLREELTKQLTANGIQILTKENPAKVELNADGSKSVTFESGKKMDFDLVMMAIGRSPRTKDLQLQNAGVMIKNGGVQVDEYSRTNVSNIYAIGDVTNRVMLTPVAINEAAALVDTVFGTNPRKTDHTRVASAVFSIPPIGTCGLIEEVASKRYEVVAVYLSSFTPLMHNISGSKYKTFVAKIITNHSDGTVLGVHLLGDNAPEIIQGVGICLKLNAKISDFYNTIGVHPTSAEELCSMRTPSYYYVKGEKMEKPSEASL

[3] = Concentration required for inhibition of human homologous Disulphide oxidoreductase (hGR) in the presence of GSSG as substrate
[4] = Concentration required for inhibition of human homologous Disulphide oxidoreductase (hGR)

Trypanothione reductase, sequence (P28593 whole entry): as the sequence (P28593 whole entry, looked up) above

SMILES | IC50 [1] | inhibition [2] | IC50 [3] | IC50 [4]
CCCCN(CCCC)CCCNC(=O)CCCCC1=C(CCCCC(=O)NCCCN(CCCC)CCCC)C(=O)c2c(O)cccc2C1=O | 0.6 µM | 81% | > 50 µM | 
CCCCN(CCCC)CCCNC(=O)CCCCC1=C(C)C(=O)c2cccc(O)c2C1=O | 0.3 µM | 88% | 41 µM | 
CC1=CC(=O)c2ccccc2C1=O [MENADIONE] | 55 µM |  |  | 63 µM
CC1=CC(=O)c2c(O)cccc2C1=O [PLUMBAGIN] | 28 µM |  |  | 38 µM
CC1=C(CCCCC(=O)NCCCNCCCNC(=O)CCCCC2=C(C)C(=O)c3cccc(O)c3C2=O)C(=O)c2c(O)cccc2C1=O | 0.5 µM | 79% | 10 µM | 
CCCCN(CCCC)CCCNC(=O)CCCCC1=C(C)C(=O)c2ccccc2C1=O | 1.1 µM | 86% | > 50 µM | 
